Earlier results, collected in publication PMC3309614 (Journal of the American Chemical Society, 2011).

Test system: kinesin-5 L214A
Conditions: L214A mutation in allosteric binding site

For S-Trityl-L-cyteine [STLC], which “effect of L214A mutation on inhibition” value is on record?
Its value is “known to suppress STLC inhibition”.
